Square brackets hold non-standard residues; d marks the D form. Ends that are not written are not given here. Peptide text beside a SMILES is read from it.

One series addresses T1, human CMKLR1 (Homo sapiens, UniProt Q99788).
T1 construct: host or cells: HEK293A (Invitrogen), stably expressing human Gα15
T1 sequence (Q99788 1-373): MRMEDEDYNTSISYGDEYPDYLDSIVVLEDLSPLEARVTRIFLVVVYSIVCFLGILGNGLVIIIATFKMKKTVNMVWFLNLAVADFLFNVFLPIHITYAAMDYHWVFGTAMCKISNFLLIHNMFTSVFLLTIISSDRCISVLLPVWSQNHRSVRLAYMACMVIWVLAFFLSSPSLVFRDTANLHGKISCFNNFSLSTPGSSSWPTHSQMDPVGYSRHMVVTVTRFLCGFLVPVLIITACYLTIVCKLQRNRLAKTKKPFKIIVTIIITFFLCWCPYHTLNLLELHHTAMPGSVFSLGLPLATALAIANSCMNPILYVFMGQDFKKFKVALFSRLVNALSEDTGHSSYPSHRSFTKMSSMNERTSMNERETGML
Kind of series: Ca2+ mobilization (CellLux imaging) agonist assay in HEK293A cells expressing CMKLR1 and Gα15. The series is classed as cell-based. The settings on record: Ca2+ mobilization, CMKLR1, decimal comma; for EC50: NR where no EC50 is given, read-out: EC50. An outline of the steps:
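Agonist-evoked Ca2+ rise, read as FLUO4-AM fluorescence by imaging, in HEK293A cells carrying CMKLR1 plus Gα15. Peptides were diluted in C1 solution (pH 7.4) containing 0.1% BSA. Duplicate signals were averaged, corrected for buffer wells and normalized to background, and EC50 was fitted from amplitude versus concentration.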
A general note: Calcium assays in cells follow changes in intracellular calcium, usually with a dye or a luminescent sensor.

Series [1] is described as follows: In vitro peptide stability in human serum (RP-HPLC). As to conditions: for half-life at 50 µg/mL: human, human serum, 25% (v/v) in RPMI.
Method: The initial time is recorded, and at known time intervals 50 µL of the reaction solution is removed and added to 100 µL of 6% aqueous trichloroacetic acid (TCA) for precipitation of serum proteins. […] The reaction supernatant is then analyzed using RP-HPLC (Agilent 1200 LC System) on a ZORBAX Eclipse XDB-C18, 4.6×150 mm, 5 µm column (Agilent). […] Fluorescence is detected at an excitation wavelength of 280 nm and emission wavelength of 340 nm. Kinetic analysis was carried out by least-squares analysis of the logarithm of the integration peak area versus time.

Broadly, the EC50 is the concentration that produces a half-maximal response. As a reminder, the half-life is how long it takes for the measured level to halve. Consider `CC(C)C[C@H](NC(=O)[C@@H](N)CCC(N)=O)C(=O)N1CCC[C@H]1C(=O)NCC(=O)N[C@@H](CCC(N)=O)C(=O)N[C@@H](Cc1ccccc1)C(=O)N[C@@H](C)C(=O)N[C@H](Cc1ccccc1)C(=O)N[C@@H](Cc1ccccc1)C(=O)O` [compound 71] (H-QLPGQFA[dF]F-OH; N-terminus assumed), for which, at human CMKLR1, the max response is 0,66 DF/F0 and the concentration for a half-maximal effect (EC50) came to 2460 nM. In series [1], this molecule returned a half-life at 50 µg/mL of 31 min.
In the same order, the values of `C[C@H](N)C(=O)N[C@@H](Cc1ccccc1)C(=O)NCC(=O)N[C@H](Cc1ccccc1)C(=O)N[C@H](CCC(N)=O)C(=O)N[C@@H](CO)C(=O)N[C@@H](C)C(=O)N[C@@H](Cc1ccc(O)cc1)C(=O)N[C@@H](CO)C(=O)O` [compound 134] (H-AFG[dF][dQ]SAYS-OH; N-terminus assumed) are 1,37 DF/F0, 69.4 nM and 10 min.
Take FLPGQYAFS-OH [compound 34]: the max response on human CMKLR1 was 0,68 DF/F0. Also, the t1/2 in series [1] (metabolic stability in human serum) is 28 min.
Take FLFGFQFAY-OH [compound 109]: at human CMKLR1, the max response is 1,7 DF/F0 and the concentration for a half-maximal effect (EC50) is 1650 nM. This molecule yielded a half-life at 50 µg/mL in series [1] of 16 min.
For `CC(C)C[C@H](NC(=O)[C@@H](N)Cc1ccc(O)cc1)C(=O)N1CCC[C@H]1C(=O)N[C@H](CC(C)C)C(=O)NCC(=O)N[C@@H](Cc1ccc(O)cc1)C(=O)N[C@@H](C)C(=O)N1CCC[C@@H]1C(=O)N[C@H](Cc1ccccc1)C(=O)O` [compound 151] (H-YLP[dL]GYA[dP][dF]-OH; N-terminus assumed), in that order: 1,47 DF/F0, 298 nM and 91 min.
For `CC(C)C[C@@H](NC(=O)[C@H](Cc1c[nH]cn1)NC(=O)[C@@H](N)CO)C(=O)NCC(=O)N[C@@H](CCC(N)=O)C(=O)N[C@@H](Cc1ccccc1)C(=O)N[C@H](Cc1c[nH]c2ccccc12)C(=O)N[C@@H](Cc1ccccc1)C(=O)N[C@H](CO)C(=O)O` [compound 139] (H-SH[dL]GQF[dW]F[dS]-OH; N-terminus assumed), in that order: 1,55 DF/F0, 104 nM and 56 min.
